{
  "source": "PubChem BioAssay (NCI)",
  "assay_in_all_cases": "NCI-60 cell line screen, 48 h",
  "key": {"IGROV1 ovarian": {"test_system": "IGROV1 ovarian"}, "HCT-15 colon": {"test_system": "HCT-15 colon"}, "HT29 colon": {"test_system": "HT29 colon"}, "COLO 205 colon": {"test_system": "COLO 205 colon"}, "HCC-2998 colon": {"test_system": "HCC-2998 colon"}, "SF-295 CNS": {"test_system": "SF-295 CNS"}, "MDA-MB-231 breast": {"test_system": "MDA-MB-231 breast"}, "SF-539 CNS": {"test_system": "SF-539 CNS"}, "KM12 colon": {"test_system": "KM12 colon"}, "SR leukemia": {"test_system": "SR leukemia"}, "OVCAR-5 ovarian": {"test_system": "OVCAR-5 ovarian"}, "HL-60(TB) leukemia": {"test_system": "HL-60(TB) leukemia"}, "T-47D breast": {"test_system": "T-47D breast"}, "NCI-H460 lung": {"test_system": "NCI-H460 lung"}, "MDA-MB-468 breast": {"test_system": "MDA-MB-468 breast"}, "ACHN renal": {"test_system": "ACHN renal"}, "OVCAR-8 ovarian": {"test_system": "OVCAR-8 ovarian"}, "SK-MEL-5 melanoma": {"test_system": "SK-MEL-5 melanoma"}, "SNB-19 CNS": {"test_system": "SNB-19 CNS"}, "TK-10 renal": {"test_system": "TK-10 renal"}, "NCI-H226 lung": {"test_system": "NCI-H226 lung"}, "MOLT-4 leukemia": {"test_system": "MOLT-4 leukemia"}, "PC-3 prostate": {"test_system": "PC-3 prostate"}, "K-562 leukemia": {"test_system": "K-562 leukemia"}, "SK-MEL-28 melanoma": {"test_system": "SK-MEL-28 melanoma"}, "OVCAR-4 ovarian": {"test_system": "OVCAR-4 ovarian"}, "DU-145 prostate": {"test_system": "DU-145 prostate"}, "SN12C renal": {"test_system": "SN12C renal"}, "MDA-MB-435": {"test_system": "MDA-MB-435"}, "SNB-75 CNS": {"test_system": "SNB-75 CNS"}},
  "note": "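Dose response: 5 concentrations. Exposure: 48 h. Format: 96-well plates. Endpoint: linear interpolation; highest concentration if not reached. Here, GI50 denotes the concentration required for 50% inhibition of growth. Definition used: TGI = concentration required for complete inhibition of growth.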",
  "data": [
    {"smiles": "Cc1cccc(/C=C/c2ccc(NC(=S)NCCCCN(C)C)cc2)c1", "values": [
      {"measurement": "TGI", "setting": "IGROV1 ovarian", "value": 31.2, "unit": "µM"},
      {"measurement": "GI50", "setting": "HCT-15 colon", "value": 11.9, "unit": "µM"},
      {"measurement": "TGI", "setting": "HCT-15 colon", "value": 25.1, "unit": "µM"},
      {"measurement": "GI50", "setting": "HT29 colon", "value": 5.38, "unit": "µM"},
      {"measurement": "TGI", "setting": "HT29 colon", "value": 29.9, "unit": "µM"},
      {"measurement": "GI50", "setting": "COLO 205 colon", "value": 15.6, "unit": "µM"},
      {"measurement": "TGI", "setting": "COLO 205 colon", "value": 33.5, "unit": "µM"},
      {"measurement": "GI50", "setting": "HCC-2998 colon", "value": 15.1, "unit": "µM"},
      {"measurement": "TGI", "setting": "HCC-2998 colon", "value": 29.9, "unit": "µM"},
      {"measurement": "GI50", "setting": "SF-295 CNS", "value": 16.2, "unit": "µM"},
      {"measurement": "TGI", "setting": "SF-295 CNS", "value": 31.5, "unit": "µM"},
      {"measurement": "GI50", "setting": "MDA-MB-231 breast", "value": 12.9, "unit": "µM"},
      {"measurement": "TGI", "setting": "MDA-MB-231 breast", "value": 26.6, "unit": "µM"},
      {"measurement": "GI50", "setting": "SF-539 CNS", "value": 13.4, "unit": "µM"},
      {"measurement": "TGI", "setting": "SF-539 CNS", "value": 26.3, "unit": "µM"},
      {"measurement": "GI50", "setting": "KM12 colon", "value": 16.5, "unit": "µM"},
      {"measurement": "TGI", "setting": "KM12 colon", "value": 31.9, "unit": "µM"},
      {"measurement": "GI50", "setting": "SR leukemia", "value": 12.2, "unit": "µM"},
      {"measurement": "TGI", "setting": "SR leukemia", "value": 39.2, "unit": "µM"},
      {"measurement": "GI50", "setting": "OVCAR-5 ovarian", "value": 15.5, "unit": "µM"},
      {"measurement": "TGI", "setting": "OVCAR-5 ovarian", "value": 29.5, "unit": "µM"},
      {"measurement": "GI50", "setting": "HL-60(TB) leukemia", "value": 8.41, "unit": "µM"},
      {"measurement": "TGI", "setting": "HL-60(TB) leukemia", "value": 29.7, "unit": "µM"},
      {"measurement": "GI50", "setting": "T-47D breast", "value": 16.9, "unit": "µM"},
      {"measurement": "TGI", "setting": "T-47D breast", "value": 36.9, "unit": "µM"},
      {"measurement": "GI50", "setting": "NCI-H460 lung", "value": 12.8, "unit": "µM"},
      {"measurement": "TGI", "setting": "NCI-H460 lung", "value": 27.3, "unit": "µM"},
      {"measurement": "GI50", "setting": "MDA-MB-468 breast", "value": 12.7, "unit": "µM"},
      {"measurement": "TGI", "setting": "MDA-MB-468 breast", "value": 26.6, "unit": "µM"},
      {"measurement": "GI50", "setting": "ACHN renal", "value": 16.3, "unit": "µM"},
      {"measurement": "TGI", "setting": "ACHN renal", "value": 29.9, "unit": "µM"},
      {"measurement": "GI50", "setting": "OVCAR-8 ovarian", "value": 18.9, "unit": "µM"},
      {"measurement": "TGI", "setting": "OVCAR-8 ovarian", "value": 38.1, "unit": "µM"},
      {"measurement": "GI50", "setting": "SK-MEL-5 melanoma", "value": 15.9, "unit": "µM"},
      {"measurement": "TGI", "setting": "SK-MEL-5 melanoma", "value": 29.4, "unit": "µM"},
      {"measurement": "GI50", "setting": "SNB-19 CNS", "value": 16.1, "unit": "µM"},
      {"measurement": "TGI", "setting": "SNB-19 CNS", "value": 29.8, "unit": "µM"},
      {"measurement": "GI50", "setting": "TK-10 renal", "value": 20.7, "unit": "µM"},
      {"measurement": "TGI", "setting": "TK-10 renal", "value": 38.5, "unit": "µM"},
      {"measurement": "GI50", "setting": "NCI-H226 lung", "value": 14.9, "unit": "µM"},
      {"measurement": "TGI", "setting": "NCI-H226 lung", "value": 31.2, "unit": "µM"},
      {"measurement": "GI50", "setting": "MOLT-4 leukemia", "value": 13.4, "unit": "µM"},
      {"measurement": "TGI", "setting": "MOLT-4 leukemia", "value": 37.5, "unit": "µM"},
      {"measurement": "GI50", "setting": "PC-3 prostate", "value": 14.2, "unit": "µM"},
      {"measurement": "TGI", "setting": "PC-3 prostate", "value": 32.2, "unit": "µM"},
      {"measurement": "GI50", "setting": "K-562 leukemia", "value": 3.96, "unit": "µM"},
      {"measurement": "TGI", "setting": "K-562 leukemia", "value": "> 100", "unit": "µM"},
      {"measurement": "GI50", "setting": "SK-MEL-28 melanoma", "value": 15.6, "unit": "µM"},
      {"measurement": "TGI", "setting": "SK-MEL-28 melanoma", "value": 29.3, "unit": "µM"},
      {"measurement": "GI50", "setting": "OVCAR-4 ovarian", "value": 14.8, "unit": "µM"},
      {"measurement": "TGI", "setting": "OVCAR-4 ovarian", "value": 29, "unit": "µM"},
      {"measurement": "GI50", "setting": "DU-145 prostate", "value": 15.1, "unit": "µM"},
      {"measurement": "TGI", "setting": "DU-145 prostate", "value": 29.2, "unit": "µM"},
      {"measurement": "GI50", "setting": "SN12C renal", "value": 14.9, "unit": "µM"},
      {"measurement": "TGI", "setting": "SN12C renal", "value": 29, "unit": "µM"},
      {"measurement": "GI50", "setting": "MDA-MB-435", "value": 13.9, "unit": "µM"},
      {"measurement": "TGI", "setting": "MDA-MB-435", "value": 27.7, "unit": "µM"},
      {"measurement": "GI50", "setting": "SNB-75 CNS", "value": 9.05, "unit": "µM"},
      {"measurement": "TGI", "setting": "SNB-75 CNS", "value": 21.9, "unit": "µM"}
    ]}
  ]
}
